The results in this text go back to patent publication US20080039482A1, “SULFONAMIDO-MACROCYCLES AS TIE2 INHIBITORS AND SALTS THEREOF, PHARMACEUTICAL COMPOSITIONS COMPRISING SAME, METHODS OF PREPARING SAME AND USES OF SAME” (priority 2006, published 2008).

One test addresses Tie2 (Homo sapiens, UniProt Q02763). Briefly: Tie2 ELISA assay (assay 1): Ang2-stimulated Tie2 autophosphorylation in transfected CHO cells. The test is classed as cell-based. Further details: expressed in transfected cells; host or cells: CHO (DHFR selection). The settings on record: CHO Tie2/DHFR cells stimulated by angiopoietin-2, pIC50 = -log IC50 in molar concentration, read-out: Tie 2 activity (assay 1). As to the method:
Cellular activity of compounds of the present invention as inhibitors of Tie2 kinase activity was measured employing a Tie2 ELISA assay as described in the following paragraphs. Herein CHO cell-cultures, which are stably transfected by known techniques with Tie2 using DHFR deficiency as selection marker, are stimulated by angiopoietin-2. The specific autophosphorylation of Tie2 receptors is quantified with a sandwich-ELISA using anti-Tie2 antibodies for catch and anti-phosphotyrosine antibodies coupled to HRP for detection.
• 96 well tissue culture plate, sterile, Greiner • 96 well FluoroNunc plate MaxiSorp Surface C, Nunc • 96 well plate polypropylene for compound dilution in DMSO • CHO Tie2/DHFR (transfected cells) • PBS−; PBS++, DMSO • MEM alpha Medium with Glutamax-I without Ribonucleosides and Deoxyribonucleosides (Gibco #32561-029) with 10% FCS after dialysis! and 1% PenStrep • Lysis buffer: 1 Tablet “Complete” protease inhibitor • 1 cap Vanadate (1 mL>40 mg/mL; working solution 2 mM) • ad 50 mL with Duschl-Puffer • pH 7.6 • Anti-Tie2-antibody 1:425 in Coating Buffer pH 9.6 • Stock solution: 1.275 mg/mL>working: 3 μg/mL • PBST: 2 bottles PBS (10×)+10 ml Tween, fill up with VE-water • RotiBlock 1:10 in VE-water • Anti-Phosphotyrosine HRP-Conjugated 1:10000 in 3% TopBlock • 3% TopBlock in PBST • BM Chemiluminescence ELISA Substrate (POD) • solution B 1:100 solution A • SF9 cell culture medium • Ang2-Fc in SF9 cell culture medium Cell Experiment: • Dispense 5×10^4 cells/well/98 μL in 96 well tissue culture plate • Incubate at 37° C./5% CO2 • After 24 h add compounds according to desired concentrations • Add also to control and stimulated values without compounds 2 μL DMSO • And mix for a few min at room temperature • Add 100 μL Ang2-Fc to all wells except control, which receives insect medium • Incubate 20 min at 37° C. • Wash 3× with PBS++ • Add 100 μl Lysis buffer/well and shake a couple of min at room temperature • Store lysates at […] before utilizing for the ELISA Performance of Sandwich-ELISA • Coat 96 well FluoroNunc Plate MaxiSorp Surface C with anti-Tie2 mAb • 1:425 in Coating buffer pH 9.6; 100 μL/well overnight at 4° C. • Wash 2× with PBST • Block plates with 250 μL/well RotiBlock 1:10 in VE-water • Incubate for 2 h at room temperature or overnight at 4° C. shaking • Wash 2× in PBST • Add thawed lysates to wells and incubate overnight shaking at 4° C. • Wash 2× with PBST • Add 100 μL/well anti-Phosphotyrosine HRP-Conjugated 1:10000 in 3% • TopBlock (3% TopBlock in PBST) and incubate overnight under shaking • Wash 6× with PBST • Add 100 μL/well BM Chemiluminescence ELISA Substrate (POD) • solutions 1 und 2 (1:100) • Determine luminescence with the LumiCount. Assay 2: Tie-2-Kinase HTRF-Assay Without Kinase Preactivation

A further test deals with T1, CDK2/CycE (Homo sapiens, UniProt P24941).
T1 construct: GST; purchased ProQinase GmbH (Freiburg, Germany); host or cells: insect cells (Sf9)
Briefly: CDK2 HTRF assay (assay 4). The test is classed as biochemical. The settings on record: IC50 assay 4/IC50 assay 2. From the text: CDK2/CycE-inhibitory activity of compounds of the present invention was quantified employing the CDK2/CycE HTRF assay as described in the following paragraphs.
Recombinant fusion proteins of GST and human CDK2 and of GST and human CycE, expressed in insect cells (Sf9) and purified by Glutathion-Sepharose affinity chromatography, were purchase from ProQinase GmbH (Freiburg, Germany). As substrate for the kinase reaction biotinylated peptide biotin-Ttds-YISPLKSPYKISEG (C-terminus in amid form) was used which can be purchased e.g. form the company JERINI peptide technologies (Berlin, Germany).
CDK2/CycE was incubated for 60 min at 22° C. in the presence of different concentrations of test compounds in 5 μl assay buffer [50 mM Tris/HCl pH 8.0, 10 mM MgCl2, 1.0 mM dithiothreitol, 0.1 mM sodium ortho-vanadate, 10 μM adenosine-tri-phosphate (ATP), 0.75 μM substrate, 0.01% (v/v) Nonidet-P40 (Sigma), 1% (v/v) dimethylsulfoxide]. The concentration of CDK2/CycE was adjusted depending of the activity of the enzyme lot and was chosen appropriate to have the assay in the linear range, typical concentrations were in the range of 1 ng/ml. The reaction was stopped by the addition of 5 μl of a solution of HTRF detection reagents (0.2 μM streptavidine-XLent and 3.4 nM Phospho-(Ser) CDKs Substrate Antibody [product #2324B, Cell Signalling Technology, Danvers, Mass., USA} and 4 nM Prot-A-EuK [Protein A labeled with Europium Cryptate from Cis biointernational, France, product no. 61PRAKLB]) in an aqueous EDTA-solution (100 mM EDTA, 800 mM KF, 0.2% (w/v) bovine serum albumin in 100 mM HEPES/NaOH pH 7.0).

Some results are limits rather than exact numbers.

Tie2, sequence (Q02763 23-1124, species assumed): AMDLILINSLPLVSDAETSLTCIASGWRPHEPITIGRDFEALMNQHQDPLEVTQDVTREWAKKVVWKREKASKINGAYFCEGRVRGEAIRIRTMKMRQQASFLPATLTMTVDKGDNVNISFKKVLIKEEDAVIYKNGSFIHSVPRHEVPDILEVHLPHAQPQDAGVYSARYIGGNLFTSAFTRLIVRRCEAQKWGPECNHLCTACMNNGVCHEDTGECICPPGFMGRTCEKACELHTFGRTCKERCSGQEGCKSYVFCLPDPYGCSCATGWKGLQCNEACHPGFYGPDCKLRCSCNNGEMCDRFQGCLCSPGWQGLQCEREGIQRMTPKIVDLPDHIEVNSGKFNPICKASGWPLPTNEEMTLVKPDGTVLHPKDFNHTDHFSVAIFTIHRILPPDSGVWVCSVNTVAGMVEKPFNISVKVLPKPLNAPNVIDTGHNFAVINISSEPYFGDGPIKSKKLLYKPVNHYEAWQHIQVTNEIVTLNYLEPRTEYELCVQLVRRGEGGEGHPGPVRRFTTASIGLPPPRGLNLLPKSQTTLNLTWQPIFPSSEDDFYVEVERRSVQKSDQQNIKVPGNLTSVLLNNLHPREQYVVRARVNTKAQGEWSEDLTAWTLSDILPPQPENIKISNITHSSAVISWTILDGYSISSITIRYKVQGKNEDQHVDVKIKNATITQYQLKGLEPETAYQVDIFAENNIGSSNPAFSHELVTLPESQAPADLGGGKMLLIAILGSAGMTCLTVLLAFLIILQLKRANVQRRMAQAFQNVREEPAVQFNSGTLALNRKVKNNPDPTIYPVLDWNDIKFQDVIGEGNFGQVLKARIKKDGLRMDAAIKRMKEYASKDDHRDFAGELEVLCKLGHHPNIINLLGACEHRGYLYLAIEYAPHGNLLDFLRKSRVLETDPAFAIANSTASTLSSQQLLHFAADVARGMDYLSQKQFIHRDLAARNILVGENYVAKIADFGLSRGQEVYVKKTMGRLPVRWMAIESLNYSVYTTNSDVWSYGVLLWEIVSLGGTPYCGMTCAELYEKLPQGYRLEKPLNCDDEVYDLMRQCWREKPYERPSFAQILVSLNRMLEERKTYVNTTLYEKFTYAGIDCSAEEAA

For `Cc1ccc(C2(C(=O)Nc3ccc(-c4cnc5nc4NCCCNS(=O)(=O)c4cccc(c4)N5)cc3)CC2)cc1` [Example 1, 1-p-Tolyl-cyclopropane-carboxylic acid [4-(13,13-dioxo-13λ^6-thia-2,4,8,12,19-pentaaza-tricyclo[12.3.1.1^3,7]nonadeca-1(18),3(19),4,6, 14,16-hexaen-6-yl)-phenyl]-amide], at Tie2, the IC50 is less than 100 nM. Also, the “Selectivity vs. CDK2” value on CDK2/CycE was greater than 20 fold.
On the same counts, the results for `Cc1ccccc1C1(C(=O)Nc2ccc(-c3cnc4nc3NCCCNS(=O)(=O)c3cccc(c3)N4)cc2)CC1` [Example 2, 1-o-Tolyl-cyclopropane-arboxylic acid [4-(13,13-dioxo-13λ^6-thia-2,4,8,12,19-pentaaza-tricyclo[12.3.1.1^3,7]nonadeca-1(18),3(19),4,6,14,16-hexaen-6-yl)-phenyl]-amide] are less than 100 nM and greater than 20 fold.
On the same counts, the results for `COc1cccc(C2(C(=O)Nc3ccc(-c4cnc5nc4NCCCNS(=O)(=O)c4cccc(c4)N5)cc3)CC2)c1` [Example 3, 1-(3-Methoxy-phenyl)-cyclopropane-carboxylic acid [4-(13,13-dioxo-13λ^6-thia-2,4,8,12,19-pentaaza-tricyclo[12.3.1.1^3,7]nonadeca-1(18),3(19),4,6,14,16-hexaen-6-yl)-phenyl]-amide] are less than 100 nM and greater than 20 fold.
As for `COc1ccc(C2(C(=O)Nc3ccc(-c4cnc5nc4NCCCNS(=O)(=O)c4cccc(c4)N5)cc3)CC2)cc1` [Example 4, 1-(4-Methoxy-phenyl)-cyclopropane-carboxylic acid [4-(13,13-dioxo-13λ^6-thia-2,4,8,12,19-pentaaza-tricyclo[12.3.1.1^3,7]-nonadeca-1(18),3(19),4,6,14,16-hexaen-6-yl)-phenyl]-amide], the IC50 on Tie2 was less than 100 nM. Further, the “Selectivity vs. CDK2” value on CDK2/CycE is recorded as greater than 20 fold.
Taken in the same sequence, the figures for `O=C(Nc1ccc(-c2cnc3nc2NCCCNS(=O)(=O)c2cccc(c2)N3)cc1)C1(c2cccc(Cl)c2)CC1` [Example 5, 1-(3-Chloro-phenyl)-cyclopropane-arboxylic acid [4-(13,13-dioxo-13λ^6-thia-2,4,8,12,19-pentaaza-tricyclo[12.3.1.1^3,7]-nadeca-1(18),3(19),4,6,14,16-hexaen-6-yl)-phenyl]-amide] were less than 100 nM and greater than 20 fold.
On the same counts, the results for `O=C(Nc1ccc(-c2cnc3nc2NCCCNS(=O)(=O)c2cccc(c2)N3)cc1)C1(c2ccc(Cl)cc2)CC1` [Example 6, 1-(4-Chloro-phenyl)-cyclopropane-carboxylic acid [4-(13,13-dioxo-13λ^6-thia-2,4,8,12,19-pentaaza-tricyclo[12.3.1.1^3,7]-nonadeca-1(18),3(19),4,6,14,16-hexaen-6-yl)-phenyl]-amide] are less than 100 nM and greater than 20 fold.
Taken in the same sequence, the figures for `O=C(Nc1ccc(-c2cnc3nc2NCCCNS(=O)(=O)c2cccc(c2)N3)cc1)C1(c2ccccc2F)CC1` [Example 7, 1-(2-Fluoro-phenyl)-cyclopropane-carboxylic acid [4-(13,13-dioxo-13λ^6-thia-2,4,8,12,19-pentaaza-tricyclo[12.3.1.1^3,7]nonadeca-1(18),3(19),4,6,14,16-hexaen-6-yl)-phenyl]-amide] were less than 100 nM and greater than 20 fold.
For `O=C(Nc1ccc(-c2cnc3nc2NCCCNS(=O)(=O)c2cccc(c2)N3)cc1)C1(c2cccc(F)c2)CC1` [Example 8, 1-(3-Fluoro-phenyl)-cyclopropane-carboxylic acid [4-(13,13-dioxo-13λ^6-thia-2,4,8,12,19-pentaaza-tricyclo[12.3.1.1^3,7]nonadeca-1(18),3(19),4,6,14,16-hexaen-6-yl)-phenyl]-amide], the IC50 on Tie2 was less than 100 nM. Further, the “Selectivity vs. CDK2” value on CDK2/CycE is greater than 20 fold.
As for `O=C(Nc1ccc(-c2cnc3nc2NCCCNS(=O)(=O)c2cccc(c2)N3)cc1)C1(c2ccc(F)cc2)CC1` [Example 9, 1-(4-Fluoro-phenyl)-cyclopropane-carboxylic acid [4-(13,13-dioxo-13λ^6-thia-2,4,8,12,19-pentaaza-tricyclo[12.3.1.1^3.7]nonadeca-1(18),3(19),4,6,14,16-hexaen-6-yl)-phenyl]-amide], the IC50 at Tie2 is less than 100 nM. At CDK2/CycE, the “Selectivity vs. CDK2” value is reported as greater than 20 fold.
On the same counts, the results for `O=C(Nc1ccc(-c2cnc3nc2NCCCNS(=O)(=O)c2cccc(c2)N3)cc1)C1(c2cccc(C(F)(F)F)c2)CC1` [Example 10, 1-(3-Trifluoromethyl-phenyl)-cyclopropane-carboxylic acid [4-(13,13-dioxo-13λ^6-thia-2,4,8,12,19-pentaaza-tricyclo[12.3.1.1^3,7]nonadeca-1(18),3(19),4,6,14,16-hexaen-6-yl)-phenyl]-amide] are less than 100 nM and greater than 20 fold.
Taken in the same sequence, the figures for `O=C(Nc1ccc(-c2cnc3nc2NCCCNS(=O)(=O)c2cccc(c2)N3)cc1)C1(c2ccc(C(F)(F)F)cc2)CC1` [Example 11, 1-(4-Trifluoromethyl-phenyl)-cyclopropane-carboxylic acid [4-(13,13-dioxo-13λ^6-thia-2,4,8,12,19-pentaaza-tricyclo[12.3.1.1^3,7]nonadeca-1(18),3(19),4,6,14,16-hexaen-6-yl)-phenyl]-amide] were less than 100 nM and greater than 20 fold.
Turning to `O=C(Nc1ccc(-c2cnc3nc2NCCCNS(=O)(=O)c2cccc(c2)N3)cc1)C1(c2cc(C(F)(F)F)ccc2F)CC1` [Example 12, 1-(2-Fluoro-5-trifluoromethyl-phenyl)-cyclopropane-carboxylic acid [4-(13,13-dioxo-13λ^6-thia-2,4,8,12,19-pentaaza-tricyclo[12.3.1.1^3,7]-nonadeca-1(18),3(19),4,6,14,16-hexaen-6-yl)-phenyl]-amide], the IC50 at Tie2 was less than 100 nM. In addition, the “Selectivity vs. CDK2” value on CDK2/CycE was greater than 20 fold.
For `CC(C)(C(=O)Nc1ccc(-c2cnc3nc2NCCCNS(=O)(=O)c2cccc(c2)N3)cc1)c1ccc(Cl)cc1` [Example 13, 2-(4-Chloro-phenyl)-N-[4-(13,13-dioxo-13λ^6-thia-2,4,8,12,19-pentaaza-tricyclo[12.3.1.1^3,7]-nonadeca-1(18),3(19),4,6,14,16-hexaen-6-yl)-phenyl]-isobutyramide], at Tie2, the IC50 lay within 100 to 1000 nM. Further, at CDK2/CycE, the “Selectivity vs. CDK2” value is recorded as greater than 20 fold.
